Assay results as given in patent US20130029928A1 (priority 2010, published 2013).
Where a name gives a salt, the structure may show the parent alone. Read-outs that look alike come from different tables or passages of the source.

Columns and labels:
[1] = system: panel of tumour cell lines; test: ATP cytotoxicity assay on the panel of tumour cell lines (CXR1002 alone; test items alone vs combined with CXR1002); conditions: a number of the cell lines; single dose of CXR1002; 48 hours
Experimental: (§2) The SRB assay was performed according to the method specified by the NIC/NIH. […] Assay replicates were independent in time and up to 4 replicates were performed per cell line.
Cells were plated at the optimal plating density for that cell line in 96-well plates and allowed to attach overnight. The next day, the medium was removed and replaced with fresh medium containing the dose ranges of test items. The cells were exposed to 5-FU, cisplatin, docetaxel, doxorubicin, geldanamycin, gemcitabine, rapamycin or roscovitine in Roswell Park Memorial Institute (RPMI) medium containing 10% Foetal Calf Serum (FCS) and 2 mM Glutamine at 37° C. and 5% CO2 for 48 hours. […] There were 3 replicates for each test item concentration.
(§3) Following exposure to Test Items, the CellTitre-Glo Luminescent Cell Viability Assay to measure ATP content was performed according to the manufacturer's detailed instructions (Promega Corporation, Technical Bulletin No. 288, and Cell notes, Issue 10, 2004).

[2] = system: normal pancreas tissue; test: Microarray ER stress response in normal pancreas (28 day study in rat); type: in vivo
Source text: Chemical toxicants such as tunicamycin and thapsigargin cause an accumulation of unfolded protein aggregates in the ER lumen (Schroder (2008)), (Harding (2002)), (Zhang (2008)). Whilst it is fair to say that many chemicals, drugs and toxicants induce ER stress, not all do. […] The phthalate DEHP and the PPARα agonist WY14,643 were also studied.

[3] = biological target: liver X receptor β (LXRβ) (Homo sapiens, UniProt P55055); conditions: ref (14); cited from earlier work
liver X receptor β (LXRβ), sequence (P55055 whole entry, species assumed): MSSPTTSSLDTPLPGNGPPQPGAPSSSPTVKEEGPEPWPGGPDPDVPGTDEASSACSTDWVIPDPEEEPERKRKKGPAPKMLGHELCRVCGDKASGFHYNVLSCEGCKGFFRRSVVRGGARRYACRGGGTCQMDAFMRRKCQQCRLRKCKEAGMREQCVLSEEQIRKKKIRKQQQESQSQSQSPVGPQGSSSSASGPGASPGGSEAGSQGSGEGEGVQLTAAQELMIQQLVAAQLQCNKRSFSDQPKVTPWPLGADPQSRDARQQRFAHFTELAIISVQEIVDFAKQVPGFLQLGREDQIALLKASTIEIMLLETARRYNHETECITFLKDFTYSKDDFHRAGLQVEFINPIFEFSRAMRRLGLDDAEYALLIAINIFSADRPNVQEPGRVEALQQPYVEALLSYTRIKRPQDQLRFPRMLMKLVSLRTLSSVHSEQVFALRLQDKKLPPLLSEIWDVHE

[4] = biological target: retinoid X receptor α (RXRα) (Homo sapiens, UniProt P19793); conditions: ref (14); cited from earlier work
retinoid X receptor α (RXRα), sequence (P19793 whole entry, species assumed): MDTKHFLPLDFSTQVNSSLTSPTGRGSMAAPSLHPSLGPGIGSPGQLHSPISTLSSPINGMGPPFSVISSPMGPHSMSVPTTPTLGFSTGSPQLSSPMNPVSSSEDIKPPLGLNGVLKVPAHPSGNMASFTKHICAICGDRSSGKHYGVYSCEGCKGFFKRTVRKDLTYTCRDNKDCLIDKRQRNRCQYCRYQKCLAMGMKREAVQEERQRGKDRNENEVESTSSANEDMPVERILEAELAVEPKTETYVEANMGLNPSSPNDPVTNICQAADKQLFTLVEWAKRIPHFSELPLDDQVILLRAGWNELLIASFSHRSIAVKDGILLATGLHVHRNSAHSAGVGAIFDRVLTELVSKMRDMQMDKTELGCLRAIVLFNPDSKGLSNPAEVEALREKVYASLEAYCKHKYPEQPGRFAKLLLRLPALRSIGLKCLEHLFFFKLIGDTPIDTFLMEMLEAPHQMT

[5] = system: primary rat hepatocytes; conditions: Bjork (2009); cited from earlier work
[6] = cited from earlier work
[7] = in vivo; cited from earlier work
[8] = system: rats; conditions: cited from earlier work
[9] = system: rats; conditions: doses below those causing maternal toxicity; cited from earlier work
[10] = following oral exposure; literature; cited from earlier work
[11] = Dietary APFO (300 ppm) study in rats: plasma glucose, triglycerides, cholesterol, AST, ALT, APFO level; type: in vivo, rat; design: Triglycerides / Cholesterol / Glucose: unit not given here; conditions: male, Sprague Dawley, rat, oral, 300 ppm in diet
Experimental: (§1) Rats were sacrificed at 7, 14, 28 and 84 days. Blood from each study animal was taken by cardiac puncture into lithium/heparin-coated tubes for separation of plasma. Plasma was analysed for glucose, triglycerides, cholesterol, AST and ALT (unpublished data).

[12] = system: Male Sprague Dawley rats; test: as above; type: in vivo, rat; design: Triglycerides / Cholesterol / Glucose: unit not given here; conditions: 300 ppm in diet
Experimental: as §1

[13] = system: hepatic peroxisome proliferation (PPARα); test: Hepatic peroxisome proliferation (cyanide-insensitive palmitoyl CoA oxidation) in rats; type: in vivo, rat; conditions: administration to rats
Source text: The earliest recognised characteristic of PPARα agonists was their ability to induce peroxisome proliferation in hepatocytes. The PPARα response is reflected in the increased transcription of mitochondrial and peroxisomal lipid metabolism, sterol, and bile acid biosynthesis and retinol metabolism genes (Andersen (2008)).
Peroxisome proliferation occurs as a result of the interaction of a chemical with PPARα. This leads to an increase in the synthesis of peroxisomal and lipid-metabolising enzymes and, consequently, an increase in size and number of peroxisomes. Cyanide-insensitive palmitoyl CoA oxidation is an accepted marker of peroxisome proliferation, and was used to highlight PPARα activation in vitro and in vivo.

[14] = system: HT-29; test: SRB cytotoxicity assay 48 hr; type: cell-based, human; conditions: Homo sapiens, HT-29, 48 h, read-out: IC50 Values After 48 Hrs Exposure
Experimental: as §2

[15] = system: CaCo-2; test: SRB cytotoxicity assay 48 hr; type: cell-based, human; conditions: read-out: IC50 Values After 48 Hrs Exposure
Experimental: as §2

[16] = system: MCF-7; test: SRB cytotoxicity assay 48 hr; type: cell-based, human; conditions: Homo sapiens, MCF7, 48 h, read-out: IC50 Values After 48 Hrs Exposure
Experimental: as §2

[17] = system: MDA-MB-157; test: SRB cytotoxicity assay 48 hr; type: cell-based, human; conditions: Homo sapiens, MDA-MB-157, 48 h, read-out: IC50 Values After 48 Hrs Exposure
Experimental: as §2

[18] = system: HepG2; test: SRB cytotoxicity assay 48 hr; type: cell-based, human; conditions: read-out: IC50 Values After 48 Hrs Exposure
Experimental: as §2

[19] = system: Hep3B; test: SRB cytotoxicity assay 48 hr; type: cell-based, human; conditions: Homo sapiens, 48 h, read-out: IC50 Values After 48 Hrs Exposure
Experimental: as §2

[20] = system: PC3; test: SRB cytotoxicity assay 48 hr; type: cell-based, human; conditions: Homo sapiens, PC-3, 48 h, read-out: IC50 Values After 48 Hrs Exposure
Experimental: as §2

[21] = system: A549; test: SRB cytotoxicity assay 48 hr; type: cell-based, human; conditions: Homo sapiens, A549, 48 h, read-out: IC50 Values After 48 Hrs Exposure
Experimental: as §2

[22] = system: A2780; test: SRB cytotoxicity assay 48 hr; type: cell-based, human; conditions: Homo sapiens, A2780, 48 h, read-out: IC50 Values After 48 Hrs Exposure
Experimental: as §2

[23] = system: A375; test: SRB cytotoxicity assay 48 hr; type: cell-based, human; conditions: Homo sapiens, A-375, 48 h, read-out: IC50 Values After 48 Hrs Exposure
Experimental: as §2

[24] = system: panel of human tumour-derived cell lines; test: BrdU incorporation (cell proliferation) in the SRB cell line panel; type: cell-based; conditions: 48 hrs
[25] = system: panel of human tumour-derived cell lines; test: Hoechst 3342 staining (apoptotic cells) in the SRB cell line panel; type: cell-based
[26] = biological target: CYP2C9 (Homo sapiens, UniProt P11712); test: Cytochrome P450 isozyme inhibition; type: in vitro ADME; conditions: under the conditions used (unpublished data); read-out: IC50 towards CYP2C9
CYP2C9, sequence (P11712 whole entry): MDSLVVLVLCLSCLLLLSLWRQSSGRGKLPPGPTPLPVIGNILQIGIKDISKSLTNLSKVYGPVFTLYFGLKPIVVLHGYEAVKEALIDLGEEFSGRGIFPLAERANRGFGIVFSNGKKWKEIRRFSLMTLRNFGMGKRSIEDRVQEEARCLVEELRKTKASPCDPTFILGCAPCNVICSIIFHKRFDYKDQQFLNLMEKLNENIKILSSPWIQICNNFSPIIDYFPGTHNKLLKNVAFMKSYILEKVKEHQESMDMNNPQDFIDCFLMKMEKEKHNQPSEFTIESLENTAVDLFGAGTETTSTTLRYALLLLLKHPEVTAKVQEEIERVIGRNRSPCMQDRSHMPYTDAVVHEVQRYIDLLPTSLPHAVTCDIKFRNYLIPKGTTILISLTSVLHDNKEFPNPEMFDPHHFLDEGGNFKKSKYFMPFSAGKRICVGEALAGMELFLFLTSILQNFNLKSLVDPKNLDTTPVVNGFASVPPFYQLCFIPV
Source text: There is no evidence that APFO is metabolised in mammals once dissociated to form perfluorooctanoate.

[27] = system: Male Sprague Dawley rats; test: Dietary APFO (300 ppm) study in rats: plasma glucose, triglycerides, cholesterol, AST, ALT, APFO level; type: in vivo, rat; design: Glucose / Triglycerides / ALT / AST: unit not given here; conditions: for ALT / AST / Glucose / Triglycerides: plasma, 300 ppm in diet
[28] = without reported adverse effects; cited from earlier work
[29] = system: H (chondrosarcoma); test: ATP depletion cytotoxicity assay 48 hr; conditions: LY294002 12.5 μM + CXR1002 0-1 mM; sarcoma cell line H most notably
Experimental: (§4) Assay replicates were independent in time and up to 4 replicates were performed per cell line.
(§5) Cells were plated at the optimal plating density for that cell line in 96-well plates and allowed to attach overnight. The next day, the medium was removed and replaced with fresh medium containing the dose ranges of test items. […] There were 3 replicates for each test item concentration.
Cells were plated at the optimal plating density for that cell line in 96-well plates and allowed to attach overnight. The next day, cells were pre-treated with the inhibitors UO126 or LY294002 (see Tables 18 & 20) for 2 hrs, the medium was removed and replaced with fresh medium containing the appropriate dose of the test item. […] Cells that were to be treated with DPQ received no pre-treatment. […] There were 3 replicates for each test item concentration.

[30] = system: Breast cancer cell lines; conditions: read-out: IC50 (Concentration, literature); Mol. Cancer Ther. (2002); cited from earlier work
[31] = system: MDA-MB-157; test: ATP depletion cytotoxicity assay 48 hr; type: cell-based, human; conditions: MDA-MB-157; CXR1002 300 μM; 48 hours
Experimental: as §4, §5, §3
(§6) Cells were plated at the optimal plating density for that cell line in 96-well plates and allowed to attach overnight. The next day, cells were pre-treated with the inhibitors UO126 or LY294002 (see Tables 18 & 20) for 2 hrs, the medium was removed and replaced with fresh medium containing the appropriate dose of the test item. […] Cells were exposed to these compounds in Roswell Park Memorial Institute (RPMI) medium containing 10% Foetal Calf Serum (FCS) and 2 mM Glutamine at 37° C. and 5% CO2 for 48 hours. There were 3 replicates for each test item concentration.
(§7) Following exposure to Test Items, the CellTitre-Glo Luminescent Cell Viability Assay to measure ATP content will be performed according to the manufacturer's detailed instructions (Promega Corporation, Technical Bulletin No. 288, and Cell notes, Issue 10, 2004).

[32] = system: SW1353; test: ATP depletion cytotoxicity assay 48 hr; type: cell-based, human; conditions: DPQ 20 μM + CXR1002 0-1 mM; SW1353
Experimental: as §3
(§8) Cells were plated at the optimal plating density for that cell line in 96-well plates and allowed to attach overnight. […] Cells were exposed to these compounds in Roswell Park Memorial Institute (RPMI) medium containing 10% Foetal Calf Serum (FCS) and 2 mM Glutamine at 37° C. and 5% CO2 for 48 hours. There were 3 replicates for each test item concentration.
as §7

[33] = system: HPAFII; test: ATP depletion cytotoxicity assay 48 hr; type: cell-based, human; conditions: DPQ 20 μM + CXR1002 0-1 mM; HPAFII
Experimental: as §3, §8, §7

[34] = system: Capan2; test: ATP depletion cytotoxicity assay 48 hr; type: cell-based, human; conditions: DPQ 20 μM + CXR1002 0-1 mM; Capan2
Experimental: as §4, §5, §3, §6, §7

Nc1ccn([C@@H]2O[C@H](CO)[C@@H](O)C2(F)F)c(=O)n1 [gemcitabine, Gemcitabine]
sensitivity to combination with CXR1002 vs test item alone [1]: increase the sensitivity

CCCCC(CC)COC(=O)c1ccccc1C(=O)OCC(CC)CCCC (stereo not shown) [DEHP]
ER stress response [2]: No evidence of ER stress response was detected

O=C(O)C(F)(F)C(F)(F)C(F)(F)C(F)(F)C(F)(F)C(F)(F)C(F)(F)F [PFOA, perfluorooctanoic acid]
activation of LXRβ [3]: Neither liver X receptor β (LXRβ) nor the common heterodimerization partner retinoid X receptor α (RXRα) are activated
activation of RXRα [4]: Neither liver X receptor β (LXRβ) nor the common heterodimerization partner retinoid X receptor α (RXRα) are activated
concentration causing increased expression of DDIT3/CHOP/GADD153 [5]: ≥ 30 µM
clearance of blood levels ([6]; female rats, 24 hrs after dosing): > 95%
accumulation in blood ([6]; female rats, 25 mg/kg oral after 10 previous similar doses): does not appear to accumulate
extent of biliary excretion ([6]; female rats): < 1.0%
time to peak blood levels ([6]; single gavage 25 mg/kg, rats): 1 to 2 h
total radioactivity absorbed ([6]; single oral dose 14C-PFOA 11 mg/kg, male rats, at 24 hrs): at least 93%
acute oral toxicity [7]: moderate acute oral toxicity
tumour incidence (liver, pancreas acinar cell, testes Leydig cell adenomas) ([8]; 30 ppm in the diet): not at 30 ppm
tumour incidence (liver, pancreas acinar cell, testes Leydig cell adenomas) ([8]; 300 ppm in the diet): increased incidence of benign tumours
teratogenic or foetotoxic effects [9]: no teratogenic or foetotoxic effects
metabolism [10]: not metabolised

CC[C@H](CO)Nc1nc(NCc2ccccc2)c2ncn(C(C)C)c2n1 [roscovitine, Roscovitine]
sensitivity to combination with CXR1002 vs test item alone [1]: increase the sensitivity

O=C(O)C(F)(F)C(F)(F)C(F)(F)C(F)(F)C(F)(F)C(F)(F)C(F)(F)F [APFO, Ammonium Perfluorooctanoate]
concentration at 2 weeks ([11]; week 2): 157 ± 77.8 µM
concentration at 4 weeks ([11]; week 4): 257 ± 38.9 µM
Triglycerides ([12]; Week 1): 0.41 ± 0.12
Cholesterol ([12]; Week 2): 1.55 ± 0.27
Triglycerides ([12]; Week 2): 0.62 ± 0.13
Cholesterol ([12]; Week 4): 1.70 ± 0.29
Glucose ([12]; Week 4): 15.34 ± 2.64
Cholesterol ([12]; Week 12): 1.75 ± 0.33
Glucose ([12]; Week 12): 13.12 ± 1.23
hepatic peroxisome proliferation (induction of cyanide-insensitive palmitoyl CoA oxidation) [13]: led to hepatic peroxisome proliferation
ER stress response [2]: not seen
IC50 [14]: 283 ± 5.8 µM
IC50 ([15]; Homo sapiens, Caco-2, 48 h): ~740 µM
IC50 [15]: 737 ± 245 µM
IC50 [16]: 388 ± 227 µM
IC50 [17]: 512 ± 194 µM
IC50 ([18]; Homo sapiens, HepG2, 48 h): ~160 µM
IC50 [18]: 167 ± 97.1 µM
IC50 [19]: 273 ± 80.2 µM
IC50 [20]: 317 ± 59.2 µM
IC50 [21]: 223 ± 35.4 µM
IC50 [22]: 260 ± 28.3 µM
IC50 [23]: 230 ± 10 µM
BrdU incorporation ([24]; 10 μM): No marked effects
BrdU incorporation ([24]; 30 μM): variable
BrdU incorporation ([24]; 300 μM, all but one of the cell lines): Significant suppression of BrdU incorporation
induction of apoptosis ([25]; 10 μM): little effect
induction of apoptosis ([25]; 30 μM): variable responses
induction of apoptosis ([25]; 300 μM): marked induction of apoptosis
IC50 [26]: 0.78 µM
adverse clinical observations ([27]; after one year of continuous dietary dosing, 300 ppm): No adverse clinical observations
ALT ([27]; Days 1 (so in the source)): 101.90 ± 12.19
ALT ([27]; Days 2 (so in the source)): 119.45 ± 19.27
AST ([27]; Days 2 (so in the source)): 120.00 ± 16.47
ALT ([27]; Days 4 (so in the source)): 98.99 ± 24.44
AST ([27]; Days 4 (so in the source)): 101.80 ± 19.17
ALT ([27]; Days 12 (so in the source)): 91.89 ± 14.88
AST ([27]; Days 12 (so in the source)): 92.63 ± 12.19
Glucose ([27]; Week 1): 14.31 ± 1.88
Glucose ([27]; Week 2): 16.98 ± 3.21
Triglycerides ([27]; Week 4): 0.57 ± 0.13
Triglycerides ([27]; Week 12): 0.63 ± 0.15
serum concentration in workers involved in manufacture [28]: ≤ 275 µM

O=c1cc(N2CCOCC2)oc2c(-c3ccccc3)cccc12 [LY294002, reference compound]
cytotoxic efficacy in conjunction with CXR1002 vs CXR1002 alone [29]: increased efficacy

N#CC(=C(/N)Sc1ccccc1N)/C(C#N)=C(\N)Sc1ccccc1N [U0126]
IC50 [30]: 10 to 20 µM

Cc1cccc(Nc2cc(Cl)nc(SCC(=O)O)n2)c1C [WY14,643]
ER stress response [2]: No evidence of ER stress response was detected

COc1cccc2c1C(=O)c1c(O)c3c(c(O)c1C2=O)C[C@@](O)(C(=O)CO)C[C@@H]3O[C@H]1C[C@H](N)[C@H](O)[C@H](C)O1 [Doxorubicin, Doxorubicin hydrochloride]
sensitivity to combination with CXR1002 vs test item alone [1]: increase the sensitivity

O=c1[nH]cc(F)c(=O)[nH]1 [5-FU, 5-Fluorouracil, reference compound]
sensitivity to combination with CXR1002 vs test item alone [31]: apparent increase in sensitivity

O=C1NCCc2c(OCCCCN3CCCCC3)cccc21 [DPQ, reference compound]
sensitivity in conjunction with CXR1002 vs CXR1002 alone [32]: increased sensitivity
sensitivity in conjunction with CXR1002 vs CXR1002 alone [33]: increased sensitivity
sensitivity in conjunction with CXR1002 vs CXR1002 alone [34]: increased sensitivity
